Values after ≈ are worked out from the molar mass of the structure shown.
Columns and labels:
Format in all cases: functional
[1] = system: Streptococcus pyogenes; assay: Antibacterial activity against erm containing Streptococcus pyogenes 1079
[2] = system: Streptococcus pneumoniae; assay: Antibacterial activity against erythromycin susceptible Streptococcus pneumoniae 1016
[3] = system: Staphylococcus aureus; assay: Antibacterial activity against erm containing Staphylococcus aureus 1117
[4] = system: Streptococcus pyogenes; assay: Antibacterial activity against erythromycin susceptible Streptococcus pyogenes 203
[5] = system: Streptococcus pneumoniae; assay: Antibacterial activity against mef containing Streptococcus pneumoniae 1175
[6] = system: Staphylococcus aureus; assay: Antibacterial activity against erythromycin susceptible Staphylococcus aureus 0052
[7] = system: Haemophilus influenzae; assay: Antibacterial activity against Haemophilus influenzae 1100
[8] = system: Streptococcus pneumoniae; assay: Antibacterial activity against erm containing Streptococcus pneumoniae 1095
[9] = system: Staphylococcus aureus; assay: Antibacterial activity against erm containing Staphylococcus aureus 1095
[10] = system: Haemophilus influenzae; assay: Antibacterial activity against Haemophilus influenzae 1218
[11] = system: Staphylococcus aureus; assay: Antibacterial activity against erythromycin susceptible Staphylococcus aureus 1146

## CC[C@H]1OC(=O)[C@H](C)C(=O)[C@H](C)[C@@H](O[C@@H]2O[C@H](C)C[C@H](N(C)C)[C@H]2O)[C@@](C)(OC)C[C@@H](C)C(=O)[C@H](C)[C@H]2N(CCCCn3cnc(-c4cccnc4)c3)C(=O)N[C@]12C
[1]
  MIC: 32 µg/mL (≈ 39.5 µM)
[2]
  MIC: 0.024 µg/mL (≈ 0.0296 µM)
[3]
  MIC: 100 µg/mL (≈ 123 µM)
[4]
  MIC: 0.024 µg/mL (≈ 0.0296 µM)
[5]
  MIC: 6.3 µg/mL (≈ 7.77 µM)
[6]
  MIC: 0.039 µg/mL (≈ 0.0481 µM)
[7]
  MIC: 8 µg/mL (≈ 9.86 µM)
[8]
  MIC: 0.049 µg/mL (≈ 0.0604 µM)

## CC[C@H]1OC(=O)[C@H](C)C(=O)[C@H](C)[C@@H](O[C@@H]2O[C@H](C)C[C@H](N(C)C)[C@H]2O)[C@@](C)(OC)C[C@@H](C)C(=O)[C@H](C)[C@H]2N(C/C=C/Cn3cnc(-c4cccnc4)c3)C(=O)N[C@]12C
[1]
  MIC: 32 µg/mL (≈ 39.6 µM)
[2]
  MIC: 0.063 µg/mL (≈ 0.0779 µM)
[4]
  MIC: 0.063 µg/mL (≈ 0.0779 µM)
[9]
  MIC: 64 µg/mL (≈ 79.1 µM)
[5]
  MIC: 4 µg/mL (≈ 4.94 µM)
[10]
  MIC: 2 µg/mL (≈ 2.47 µM)
[8]
  MIC: 0.063 µg/mL (≈ 0.0779 µM)
[11]
  MIC: 0.25 µg/mL (≈ 0.309 µM)

## C=CCN1C(=O)N(CCCCn2cnc(-c3cccnc3)c2)[C@@H]2[C@@H](C)C(=O)[C@H](C)C[C@](C)(OC)[C@H](O[C@@H]3O[C@H](C)C[C@H](N(C)C)[C@H]3O)[C@@H](C)C(=O)[C@](C)(F)C(=O)O[C@H](CC)[C@]21C
[1]
  MIC: 64 µg/mL (≈ 73.6 µM)
[2]
  MIC: 0.025 µg/mL (≈ 0.0288 µM)
[3]
  MIC: 100 µg/mL (≈ 115 µM)
[4]
  MIC: 0.012 µg/mL (≈ 0.0138 µM)
[5]
  MIC: 0.39 µg/mL (≈ 0.449 µM)
[6]
  MIC: 0.049 µg/mL (≈ 0.0564 µM)
[7]
  MIC: 0.5 µg/mL (≈ 0.575 µM)
[8]
  MIC: 0.05 µg/mL (≈ 0.0575 µM)

## CC[C@H]1OC(=O)[C@H](C)C(=O)[C@H](C)[C@@H](O[C@@H]2O[C@H](C)C[C@H](N(C)C)[C@H]2O)[C@](C)(OC)C[C@@H](C)C(=O)[C@H](C)[C@H]2N(CCCCn3cnc(-c4cccnc4)c3)C(=O)O[C@]12C [TELITHROMYCIN]
[1]
  MIC: 32 µg/mL (≈ 39.4 µM)
[2]
  MIC: 0.013 µg/mL (≈ 0.016 µM)
[3]
  MIC: 100 µg/mL (≈ 123 µM)
[4]
  MIC: 0.012 µg/mL (≈ 0.0148 µM)
[9]
  MIC: 64 µg/mL (≈ 78.8 µM)
[5]
  MIC: 0.13 µg/mL (≈ 0.16 µM)
[10]
  MIC: 0.5 µg/mL (≈ 0.616 µM)
[6]
  MIC: 0.049 µg/mL (≈ 0.0603 µM)
[7]
  MIC: 0.5 µg/mL (≈ 0.616 µM)
[8]
  MIC: 0.05 µg/mL (≈ 0.0616 µM)
[11]
  MIC: 0.063 µg/mL (≈ 0.0776 µM)

## CC[C@H]1OC(=O)[C@@](C)(F)C(=O)[C@H](C)[C@@H](O[C@@H]2O[C@H](C)C[C@H](N(C)C)[C@H]2O)[C@@](C)(OC)C[C@@H](C)C(=O)[C@H](C)[C@H]2N(C/C=C/Cn3cnc4cccnc43)C(=O)N(C)[C@]12C
[1]
  MIC: 2 µg/mL (≈ 2.45 µM)
[2]
  MIC: 0.063 µg/mL (≈ 0.0773 µM)
[4]
  MIC: 0.063 µg/mL (≈ 0.0773 µM)
[9]
  MIC: 64 µg/mL (≈ 78.5 µM)
[5]
  MIC: 0.13 µg/mL (≈ 0.16 µM)
[10]
  MIC: 0.25 µg/mL (≈ 0.307 µM)
[8]
  MIC: 0.063 µg/mL (≈ 0.0773 µM)
[11]
  MIC: 0.063 µg/mL (≈ 0.0773 µM)

## CC[C@H]1OC(=O)[C@@](C)(F)C(=O)[C@H](C)[C@@H](O[C@@H]2O[C@H](C)C[C@H](N(C)C)[C@H]2O)[C@@](C)(OC)C[C@@H](C)C(=O)[C@H](C)[C@H]2N(C/C=C/Cn3cnc(-c4cccnc4)c3)C(=O)N[C@]12C
[1]
  MIC: 4 µg/mL (≈ 4.84 µM)
[2]
  MIC: 0.063 µg/mL (≈ 0.0762 µM)
[4]
  MIC: 0.063 µg/mL (≈ 0.0762 µM)
[9]
  MIC: 64 µg/mL (≈ 77.4 µM)
[5]
  MIC: 0.25 µg/mL (≈ 0.302 µM)
[10]
  MIC: 0.5 µg/mL (≈ 0.605 µM)
[8]
  MIC: 0.063 µg/mL (≈ 0.0762 µM)
[11]
  MIC: 0.063 µg/mL (≈ 0.0762 µM)

## CC[C@H]1OC(=O)[C@@](C)(F)C(=O)[C@H](C)[C@@H](O[C@@H]2O[C@H](C)C[C@H](N(C)C)[C@H]2O)[C@@](C)(OC)C[C@@H](C)C(=O)[C@H](C)[C@H]2N(CCCCn3cnc(-c4cccnc4)c3)C(=O)N(C)[C@]12C
[1]
  MIC: 8 µg/mL (≈ 9.49 µM)
[2]
  MIC: 0.013 µg/mL (≈ 0.0154 µM)
[3]
  MIC: 100 µg/mL (≈ 119 µM)
[4]
  MIC: 0.024 µg/mL (≈ 0.0285 µM)
[5]
  MIC: 0.2 µg/mL (≈ 0.237 µM)
[6]
  MIC: 0.024 µg/mL (≈ 0.0285 µM)
[7]
  MIC: 2 µg/mL (≈ 2.37 µM)
[8]
  MIC: 0.025 µg/mL (≈ 0.0297 µM)
